What follows are molecules tested on HIV (assay: MT4 assay, antiviral HIV activity). Conditions: Human immunodeficiency virus 1, 96 h, read-out: HIV MT4 Assay IC50.
Assay type: cell-based
Method: Antiviral HIV activity and cytotoxicity values for compounds of the invention from Table 1 were measured in parallel in the HTLV-1 transformed cell line MT-4 based on the method previously described (Hazen et al., 2007, In vitro antiviral activity of the novel, tyrosyl-based human immunodeficiency virus (HIV) type 1 protease inhibitor brecanavir (GW640385) in combination with other antiretrovirals and against a panel of protease inhibitor-resistant HIV (Hazen et al., “In vitro antiviral activity of the novel, tyrosyl-based human immunodeficiency virus (HIV) type 1 protease inhibitor brecanavir (GW640385) in combination with other antiretrovirals and against a panel of protease inhibitor-resistant HIV”, Antimicrob. Agents Chemother. 2007, 51: 3147-3154; and Pauwels et al., “Sensitive and rapid assay on MT-4 cells for the detection of antiviral compounds against the AIDS virus”, J. of Virological Methods 1987, 16: 171-185).
Luciferase activity was measured 96 hours later by adding a cell titer glo (Promega, Madison, Wis.). Percent inhibition of cell protection data was plotted relative to no compound control. Under the same condition, cytotoxicity of the compounds was determined using cell titer Glo™ (Promega, Madison, Wis.). IC50s were determined from a 10 point dose response curve using 3-4-fold serial dilution for each compound, which spans a concentration range >1000 fold.
These values are plotted against the molar compound concentrations using the standard four parameter logistic equation: y=((Vmax*x^n)/(K^n+x^n))+Y2
Y2=minimum y n=slope factor
Vmax=maximum y x=compound concentration [M]
In the case of `Cc1ccc(-c2c(C)c(-c3nnc(N[C@H]4CC[C@H](C)CC4)o3)cc(=O)n2C(CC(C)(C)C)C(=O)O)cc1` (stereo partly drawn) [Example 6, 4,4-Dimethyl-2-(5-methyl-4-(5-(((1 r,4r)-4-methylcyclohexyl)amino)-1,3,4-oxadiazol-2-yl)-2-oxo-6-(p-tolyl)pyridin-1(2H)-yl)pentanoic acid], the IC50 is reported as 5.6 µM. `Cc1ccc(-c2c(C)cc(NS(=O)(=O)CC3CCCCC3)c(=O)n2C(CC(C)(C)C)C(=O)O)cc1` (stereo not drawn) [Example 10, 2-(3-(cyclohexylmethylsulfonamido)-5-methyl-2-oxo-6-(p-tolyl)pyridin-1(2H)-yl)-4,4-dimethylpentanoic acid] showed an IC50 of 1.56 µM. `Cc1ccc(-c2c(C)c(-c3ccc(C)c(C)c3)cc(=O)n2C(CC(C)(C)C)C(=O)O)cc1` (stereo not drawn) [Example 2, 2-(4-(3,4-Dimethylphenyl)-5-methyl-2-oxo-6-(p-tolyl)pyridin-1(2H)-yl)-4,4-dimethylpentanoic acid] was tested, and the IC50 was 1.09 µM. With `Cc1ccc(-c2c(C)c(-c3ccc(C)c(C)c3)c(NS(C)(=O)=O)c(=O)n2C(CC(C)(C)C)C(=O)O)cc1` (stereo not drawn) [Example 3, 2-(4-(3,4-dimethylphenyl)-5-methyl-3-(methylsulfonamido)-2-oxo-6-(p-tolyl)pyridin-1(2H)-yl)-4,4-dimethylpentanoic acid] the IC50 was 0.31 µM. For `Cc1ccc(-c2c(C)c(C(=O)N[C@H]3CC[C@H](C)CC3)cc(=O)n2C(CC(C)(C)C)C(=O)O)cc1` (stereo partly drawn) [Example 1, 4,4-Dimethyl-2-(5-methyl-4-(((1r,4r)-4-methylcyclohexyl)carbamoyl)-2-oxo-6-(p-tolyl)pyridin-1(2H)-yl)pentanoic acid], the IC50 was 0.35 µM. Molecule `Cc1ccc(-c2c(C)c(C(=O)NCc3ccccc3)cc(=O)n2C(CC(C)(C)C)C(=O)O)cc1` (stereo not drawn) [Example 9, 2-(4-(benzylcarbamoyl)-5-methyl-2-oxo-6-p-tolylpyridin-1(2H)-yl)-4,4-dimethylpentanoic acid] has an IC50 of 3.29 µM. With `Cc1ccc(-c2c(C)c(C(=O)NCC3CCCCC3)cc(=O)n2C(CC(C)(C)C)C(=O)O)cc1` (stereo not drawn) [Example 8, 2-(4-(cyclohexylmethylcarbamoyl)-5-methyl-2-oxo-6-p-tolylpyridin-1(2H)-yl)-4,4-dimethylpentanoic acid] the IC50 was 0.84 µM. `Cc1ccc(-c2c(C)cc(NS(C)(=O)=O)c(=O)n2C(CC(C)(C)C)C(=O)O)cc1` (stereo not drawn) [Example 4, 4,4-Dimethyl-2-(5-methyl-3-(methylsulfonamido)-2-oxo-6-(p-tolyl)pyridin-1(2H)-yl)pentanoic acid] gave an IC50 of 33 µM. `Cc1ccc(-c2c(C)c(C(=O)NC3CCCCC3)cc(=O)n2C(CC(C)(C)C)C(=O)O)cc1` (stereo not drawn) [Example 7, 2-(4-(cyclohexylcarbamoyl)-5-methyl-2-oxo-6-p-tolylpyridin-1(2H)-yl)-4,4-dimethylpentanoic acid] was tested, and the IC50 was 0.43 µM.

From patent US9802898B2, “Phenyl and tertbutylacetic acid substituted pyridinones having anti-HIV effects” (priority 2014, dated 2017)
